Measurements: patent US20220226260A1, “APPLICATION OF HONOKIOL AND MAGNOLOL IN PREPARATION OF MCR-1 ENZYME INHIBITOR” (priority 2019, published 2022)
Read-outs that look alike come from different tables or passages of the source.

Assays:
[1] = tested on: MCR-1 positive Escherichia coli (E. coli DZ2-12R); test: Chessboard MIC test, MCR-1 positive E. coli; format: cell-based; conditions: for MIC: Escherichia coli; for antibacterial effect alone: summary for the strains of Tables 1 and 2; for reduction of the MIC value of polymyxin: combination with polymyxin, MCR-1 positive Escherichia coli
Procedure: (§1) The antibacterial activities of honokiol, magnolol, polymyxin and their combination against MCR-1 producing Escherichia coli (also referred to as MCR-1 positive Escherichia coli) and Klebsiella pneumoniae are tested by chessboard method in 96-well sterile microplates, the MIC values are determined, and the fractional inhibitory concentration (FIC) indexes are calculated. Specifically, FIC=MIC (polymyxin combined)/MIC (polymyxin alone)+MIC (honokiol/magnolol combined)/MIC (honokiol/magnolol alone).

[2] = tested on: MCR-1 positive Klebsiella pneumoniae (K. pneumoniae ZJ02); test: Chessboard MIC test, MCR-1 positive K. pneumoniae; format: cell-based; conditions: for MIC: Klebsiella pneumoniae; for reduction of the MIC value of polymyxin: combination with polymyxin, MCR-1 positive Klebsiella pneumoniae
Procedure: as §1

[3] = tested on: MCR-1 engineering bacteria E. coli BL21(DE3) (pET28a-mcr-1); test: Chessboard MIC test, MCR-1 engineering bacteria; format: cell-based, Escherichia coli; conditions: for MIC: Escherichia coli, read-out: MIC alone; for synergistic effect with polymyxin: combination with polymyxin, strain expressing MCR-1; for FIC: combined with polymyxin B
Procedure: as §1

[4] = tested on: E. coli BL21(DE3) (pET28a); test: Chessboard MIC test, engineering strain not expressing MCR-1; format: cell-based, Escherichia coli; conditions: for MIC: Escherichia coli, read-out: MIC alone; for synergistic effect with polymyxin: combination with polymyxin, strain that does not express MCR-1; for FIC: combined with polymyxin B
[5] = tested on: MCR-1 positive Escherichia coli isolate; test: Time-kill curve test; format: cell-based; conditions: 1×10^5 CFUs/mL
Procedure: An overnight culture of MCR-1 positive Escherichia coli isolate is taken and adjusted to 1×10^7 colony forming units per milliliter (CFUs/mL) for use. Sterile test tubes are taken and divided into 4 groups (including blank control group, 2 μg/mL polymyxin group B group, 16 μg/mL honokiol or 32 μg/mL magnolol group, and 16 μg/mL honokiol or 32 μg/mL magnolol combined with 2 μg/mL polymyxin B group), each group is marked for 1, 3, 5 and 7 hours. 1 mL of autoclaved Lysogeny broth (LB) medium is added into each of the test tubes, and then 10 microliters (μL) of adjusted bacterial solution are added into each of the test tubes so that the concentration of bacterial solution in each of the test tubes is 1×10^5 CFUs/mL. Among them, 2 μg/mL polymyxin group B group, 16 μg/mL honokiol or 32 μg/mL magnolol group, and 16 μg/mL honokiol or 32 μg/mL magnolol combined with 2 μg/mL polymyxin B group are added with the corresponding amount of antibiotics and inhibitors respectively. Immediately after mixing, the bacterial solution of the antibiotic-free control group is coated and counted as the CFU at 0 H. After that, the bacterial solution in the corresponding test tube is taken every 1, 3, 5 and 7 hours, and the plate is coated for counting, and the time-kill curves are drawn, as shown in FIG. 1 and FIG. 2.

[6] = tested on: MCR-1 positive Klebsiella pneumoniae; test: Colony colonization experiment of mouse thigh muscle infection; format: in vivo; conditions: BALB/C mice, subcutaneous, every 8 hours for three times, 36 hours
Procedure: After BALB/C mice (female, about 20 […] (g)) are restrained, MCR-1 positive Klebsiella pneumoniae suspension (2×10^7 CFUs) is injected through the inner thigh to establish a mouse thigh muscle infection model.
After intramuscular injection of MCR-1 positive Klebsiella pneumoniae into the inner thigh of mice, 5 […] (mg/kg) (50 μL) of polymyxin B dissolved in sterile ultra-pure water (dd H2O), 50 mg/kg (50 μL) honokiol or magnolol dissolved in dimethyl sulfoxide (DMSO) solution, and 50 mg/kg of honokiol or magnolol combined with polymyxin B (5 mg/kg) are injected subcutaneously, while the positive control group is subcutaneously injected with 50 μL DMSO blank solvent. All groups of mice are administered subcutaneously every 8 hours for three times. After 36 hours of administration, the mice are sacrificed, and the thigh muscles are weighed, homogenized, diluted and counted.

[7] = combined with polymyxin B, E. coli DZ2-12R
[8] = combined with polymyxin B, K. pneumoniae ZJ02
[9] = E. coli BL21(DE3) (pET28a-mcr-1)
[10] = 50 mg/kg combined with polymyxin B (5 mg/kg)
[11] = alone (honokiol or magnolol 50 mg/kg, polymyxin B 5 mg/kg)

| Compound | MIC ([1]; read-out: MIC alone) | antibacterial effect alone ([1]; alone) | reduction of the MIC value of polymyxin [1] | FIC [1, 7] | MIC ([2]; read-out: MIC alone) | reduction of the MIC value of polymyxin [2] | FIC [2, 8] | MIC [3] | synergistic effect with polymyxin [3] | FIC [3, 9] | MIC [4] | synergistic effect with polymyxin [4] | FIC ([4]; E. coli BL21(DE3) (pET28a)) | number of bacterial colonization in mouse thigh muscle [6, 10] | number of bacterial colonization in mouse thigh muscle [6, 11] | further results |
| --- | --- | --- | --- | --- | --- | --- | --- | --- | --- | --- | --- | --- | --- | --- | --- | --- |
| C=CCc1ccc(O)c(-c2ccc(O)c(CC=C)c2)c1 [Honokiol, honokiol] | > 512 µg/mL | no antibacterial effect | 8 fold | 0.1875 | > 512 µg/mL | 16 fold | 0.125 | > 512 µg/mL | obvious synergistic effect | 0.125 | > 512 µg/mL | does not have any synergistic effect | 0.5625 | significantly reduced | no significant effect | MIC ([1]; combined with polymyxin B, E. coli DZ2-12R, read-out: MIC co-application (honokiol/magnolol)): 32 µg/mL; MIC ([2]; combined with polymyxin B, K. pneumoniae ZJ02, read-out: MIC co-application (honokiol/magnolol)): 32 µg/mL; time to completely kill MCR-1 positive Escherichia coli ([5]; 16 μg/mL honokiol combined with 2 μg/mL polymyxin B): ≤ 1 h |
| C=CCc1ccc(O)c(-c2cc(CC=C)ccc2O)c1 [Magnolol, magnolol] | > 512 µg/mL | no antibacterial effect | 4 fold | 0.3125 | > 512 µg/mL | 4 fold | 0.3125 | > 512 µg/mL | obvious synergistic effect | 0.1875 | > 512 µg/mL | does not have any synergistic effect | 1.0625 | significantly reduced | no significant effect | time to completely kill MCR-1 positive Escherichia coli ([5]; 32 μg/mL magnolol combined with 2 μg/mL polymyxin B): ≤ 3 h |
| Polymyxin B [reference compound] | – | – | – | – | – | – | – | – | – | – | – | – | – | – | no significant effect | MIC alone ([1]; alone, E. coli DZ2-12R): 8 µg/mL; MIC Polymyxin B co-application ([1]; polymyxin B combined with honokiol, E. coli DZ2-12R): 1 µg/mL; MIC Polymyxin B co-application ([1]; polymyxin B combined with magnolol, E. coli DZ2-12R): 2 µg/mL; MIC alone ([2]; alone, K. pneumoniae ZJ02): 32 µg/mL; MIC Polymyxin B co-application ([2]; polymyxin B combined with honokiol, K. pneumoniae ZJ02): 2 µg/mL; MIC Polymyxin B co-application ([2]; polymyxin B combined with magnolol, K. pneumoniae ZJ02): 8 µg/mL; MIC alone ([3]; alone, E. coli BL21(DE3) (pET28a-mcr-1)): 8 µg/mL; MIC Polymyxin B co-application ([3]; polymyxin B combined with honokiol, E. coli BL21(DE3) (pET28a-mcr-1)): 0.5 µg/mL; MIC Polymyxin B co-application ([3]; polymyxin B combined with magnolol, E. coli BL21(DE3) (pET28a-mcr-1)): 1 µg/mL; MIC alone ([4]; alone, E. coli BL21(DE3) (pET28a)): 1 µg/mL; MIC Polymyxin B co-application ([4]; polymyxin B combined with honokiol, E. coli BL21(DE3) (pET28a)): 0.5 µg/mL; MIC Polymyxin B co-application ([4]; polymyxin B combined with magnolol, E. coli BL21(DE3) (pET28a)): 1 µg/mL |
